One data set concerns the target T1, HSP60/10 (Homo sapiens, UniProt P10809).
T1 construct: octa-Histidine (His8) tag, TEV-cleavable (N, cleaved yes); made in house; host or cells: HSP60 in Rosetta 2 (DE3) E. coli; HSP10 in Rosetta 2 (DE3) pLysS
Nature of the data set: HSP60/10-mediated dMDH refolding assay. In kind it is biochemical. The note with it: 37° C., 1 mM ATP, read-out: Biochemical Assay IC50 HSP60/10-dMDH Refolding. The procedure:
Evaluation of compounds ability to inhibit GroEL/ES and HSP60/10-mediated dMDH refolding assays.
Reagent preparation: For these assays, four primary reagent stocks were prepared: 1) GroEL/ES-dMDH or HSP60/10-dMDH binary complex stock; 2) ATP initiation stock; 3) EDTA quench stock; 4) MDH enzymatic assay stock. Denatured MDH (dMDH) was prepared by 2-fold dilution of MDH (5 mg/ml, soluble pig heart MDH from Roche, product #10127248001) with denaturant buffer (7 M guanidine-HCl, 200 mM Tris, pH 7.4, and 50 mM DTT). MDH was completely denatured by incubating at room temperature for 45 min. The binary complex solutions were prepared by slowly adding the dMDH stock to a stirring stock with GroEL (or HSP60) in folding buffer (50 mM Tris-HCl, pH 7.4, 50 mM KCl, 10 mM MglC2, and 1 mM DTT), followed by addition of GroES (or HSP10). The binary complex stocks were prepared immediately prior to dispensing into the assay plates and had final protein concentrations of 83.3 nM GroEL (Mr 800 kDa) or HSP60 (Mr 400 kDa), 100 nM GroES or HSP10 (Mr 70 kDa), and 20 nM dMDH in folding buffer. For the ATP initiation stock, ATP solid was diluted into folding buffer to a final concentration of 2.5 mM. Quench solution contained 600 mM EDTA (pH 8.0). The MDH enzymatic assay stock consisted of 20 mM sodium mesoxalate and 2.4 mM NADH in reaction buffer (50 mM Tris-HCl, pH 7.4, 50 mM KC1, and 1 mM DTT).
Assay Protocol: First, 30 μL aliquots of the GroEL/ES-dMDH or HSP60/10-dMDH binary complex stocks were dispensed into clear, 384-well polystyrene plates. Next, 0.5 μL of the compound stocks (10 mM to 4.6 μM, 3-fold dilutions series in DMSO) were added by pin-transfer (V&P Scientific). The chaperonin-mediated refolding cycles were initiated by addition of 20 IA of ATP stock (reagent concentrations during refolding cycle: 50 nM GroEL or HSP60, 60 nM GroES or HSP10, 12 nM dMDH, 1 mM ATP, and compounds of 100 μM to 46 nM, 3-fold dilution series). The refolding reactions were incubated at 37° C. The incubation time was determined from refolding time-course control experiments until they reached ˜90% completion of refolding cycle — generally ˜20-40 min for GroEL/ES, and ˜40-60 min for HSP60/10). Next, the assay was quenched by addition of 10 μL of the EDTA to final concentration of 100 mM. […] A340 nm measurements were recorded at 0.5 minutes (start point) and at successive time points until the amount of NADH consumed reached ˜90% (end point, generally between 20-35 minutes). The differences between the start and end point A340 values were used to calculate the % inhibition of the GroEL/ES or HSP60/10 machinery by the compounds. IC50 values for the test compounds were obtained by plotting the % inhibition results in GraphPad Prism 6 and analyzing by non-linear regression using the log (inhibitor) vs. response (variable slope) equation. Results presented represent the averages of IC50 values obtained from at least quadriplicate (duplicate of duplicate) replicates. For results, see Tables 1, 2, and 3.

A short description of data set [1]: HEK 293 kidney cell viability / cytotoxicity assay (Alamar Blue). The note with it: human, 48 h incubation, Alamar Blue, read-out: HEK 293 Kidney Cell Viability CC50. In kind it is cell-based. The procedure:
Evaluating compound effects on kidney cell viability.
HEK 293 cells were maintained in MEM medium (Corning Cellgro, 10-009 CV) supplemented with 10% FBS (Sigma, F2242). […] Cells at 80% confluence were harvested and diluted in growth medium, then 45 μL of the HEK 293 cells (1,500 cells/well) were dispensed per well, and plates were sealed with “Breathe Easy” oxygen permeable membranes (Diversified Biotech) and incubated at 37° C., 5% CO2, for 24 h. […] Plates were sealed with “Breathe Easy” oxygen permeable membranes and incubated for an additional 48 h at 37° C. and 5% CO2. The Alamar Blue reporter reagents were then added to a final concentration of 10%, the plates incubated at 37° C. and 5% CO2, and sample fluorescence (535 nm excitation, 590 nm emission) was read using a Molecular Devices FlexStation II 384-well plate reader (readings taken between 4-24 h of incubation so as to achieve signals in the 30-60% range for conversion of resazurin to resorufin). Cell viability was calculated as per vendor instructions (Thermo Fisher—Alamar Blue cell viability assay manual).
(In general: Resazurin is reduced to fluorescent resorufin, in cell work by metabolically active cells.)

Where two headings read alike, the source gives them in different places.

The source of these data is patent US20230406831A1, “COMPOUNDS AND METHODS OF INHIBITING BACTERIAL CHAPERONIN SYSTEMS” (THE TRUSTEES OF INDIANA UNIVERSITY, priority 2020, published 2023).

T1 sequence (P10809 27-573): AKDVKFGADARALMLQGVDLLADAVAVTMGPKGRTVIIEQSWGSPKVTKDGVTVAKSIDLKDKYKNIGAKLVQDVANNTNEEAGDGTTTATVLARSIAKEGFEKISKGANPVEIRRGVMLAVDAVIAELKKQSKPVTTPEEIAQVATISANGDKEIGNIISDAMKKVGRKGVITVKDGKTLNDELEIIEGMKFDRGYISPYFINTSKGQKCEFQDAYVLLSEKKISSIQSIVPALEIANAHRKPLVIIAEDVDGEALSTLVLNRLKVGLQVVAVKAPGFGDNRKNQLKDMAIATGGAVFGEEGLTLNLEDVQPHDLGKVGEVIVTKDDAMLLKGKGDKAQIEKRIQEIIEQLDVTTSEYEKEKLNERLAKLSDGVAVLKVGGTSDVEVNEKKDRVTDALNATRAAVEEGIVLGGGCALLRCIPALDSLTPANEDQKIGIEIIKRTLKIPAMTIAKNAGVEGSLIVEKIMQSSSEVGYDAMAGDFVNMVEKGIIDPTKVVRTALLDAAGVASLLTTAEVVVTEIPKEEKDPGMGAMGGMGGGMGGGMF

A word on the CC50: it is the concentration that lowers cell viability or growth by half. Take `Cc1cc(C(C#N)c2ccc(Cl)cc2)c(Cl)cc1NC(=O)c1ccccc1O` (centres unmarked) [Compound 64, N-(5-chloro-4-((4-chlorophenyl)(cyano)methyl)-2-methylphenyl)-2-hydroxybenzamide]: the IC50 on HSP60/10 (Table 2) was determined as 50 µM. Besides, the CC50 at 48 h in data set [1] (Table 2) came out at 26 µM.
On to `Cc1cc(C(C#N)c2ccc(Cl)cc2)c(Cl)cc1NC(=O)c1cccc(O)c1` (centres unmarked) [Compound 65, N-(5-chloro-4-((4-chlorophenyl)(cyano)methyl)-2-methylphenyl)-3-hydroxybenzamide], for which, at HSP60/10 (Table 2), the IC50 stood at 33 µM. The CC50 at 48 h in data set [1] (HEK 293 kidney cells, Table 2) was found to be 44 µM.
As for `Cc1cc(C(C#N)c2ccc(Cl)cc2)c(Cl)cc1NC(=O)c1ccc(O)cc1` (centres unmarked) [Compound 66, N-(5-chloro-4-((4-chlorophenyl)(cyano)methyl)-2-methylphenyl)-4-hydroxybenzamide], the IC50 on HSP60/10 (Table 2) was determined as 35 µM. For the same compound, the CC50 at 48 h in data set [1] (HEK 293 kidney cells, Table 2) is 65 µM.
For the compound `Cc1cc(C(C#N)c2ccc(Cl)cc2)c(Cl)cc1NC(=O)c1ccccc1[N+](=O)[O-]` (centres unmarked) [Compound 67, N-(5-chloro-4-((4-chlorophenyl)(cyano)methyl)-2-methylphenyl)-2-nitrobenzamide], the IC50 on HSP60/10 (Table 2) was greater than 100 µM. Moreover, in data set [1] (HEK 293 kidney cells, Table 2), the 50% cytotoxic concentration (CC50) at 48 h is greater than 100 µM.
As for `Cc1cc(C(C#N)c2ccc(Cl)cc2)c(Cl)cc1NC(=O)c1cccc([N+](=O)[O-])c1` (centres unmarked) [Compound 68, N-(5-chloro-4-((4-chlorophenyl)(cyano)methyl)-2-methylphenyl)-3-nitrobenzamide], the IC50 at HSP60/10 (Table 2) was greater than 100 µM. For the same compound, the CC50 at 48 h in data set [1] (HEK 293 kidney cells, Table 2) was greater than 100 µM.
For the compound `Cc1cc(C(C#N)c2ccc(Cl)cc2)c(Cl)cc1NC(=O)c1ccc([N+](=O)[O-])cc1` (centres unmarked) [Compound 69, N-(5-chloro-4-((4-chlorophenyl)(cyano)methyl)-2-methylphenyl)-4-nitrobenzamide], on HSP60/10 (Table 2), the IC50 is greater than 100 µM. For the same compound, in data set [1] (HEK 293 kidney cells, Table 2), the CC50 at 48 h is greater than 100 µM.
As for `Cc1cc(C(C#N)c2ccc(Cl)cc2)c(Cl)cc1NC(=O)c1ccccc1N` (centres unmarked) [Compound 70, 2-amino-N-(5-chloro-4-((4-chlorophenyl)(cyano)methyl)-2-methylphenyl)benzamide], the IC50 on HSP60/10 (Table 2) is greater than 100 µM. The half-maximal cytotoxic concentration (CC50) at 48 h in data set [1] (HEK 293 kidney cells, Table 2) is 32 µM.
`Cc1cc(C(C#N)c2ccc(Cl)cc2)c(Cl)cc1NC(=O)c1cccc(N)c1` (centres unmarked) [Compound 71, 3-amino-N-(5-chloro-4-((4-chlorophenyl)(cyano)methyl)-2-methylphenyl)benzamide]: the IC50 on HSP60/10 (Table 2) is greater than 100 µM. The CC50 at 48 h in data set [1] (HEK 293 kidney cells, Table 2) worked out at 35 µM.
As to `Cc1cc(C(C#N)c2ccc(Cl)cc2)c(Cl)cc1NC(=O)c1ccc(N)cc1` (centres unmarked) [Compound 72, 4-amino-N-(5-chloro-4-((4-chlorophenyl)(cyano)methyl)-2-methylphenyl)benzamide], the IC50 at HSP60/10 (Table 2) amounted to 73 µM. Also, the CC50 at 48 h in data set [1] (HEK 293 kidney cells, Table 2) is 53 µM.
`Cc1cc(C(C#N)c2ccc(Cl)cc2)c(Cl)cc1NC(=O)c1ccccc1Br` (centres unmarked) [Compound 73, 2-bromo-N-(5-chloro-4-((4-chlorophenyl)(cyano)methyl)-2-methylphenyl)benzamide]: the IC50 at HSP60/10 (Table 2) was greater than 100 µM. Also, the CC50 at 48 h in data set [1] (Table 2) is greater than 100 µM.
Turning to `Cc1cc(C(C#N)c2ccc(Cl)cc2)c(Cl)cc1NC(=O)c1cccc(Br)c1` (centres unmarked) [Compound 74, 3-bromo-N-(5-chloro-4-((4-chlorophenyl)(cyano)methyl)-2-methylphenyl)benzamide], the IC50 at HSP60/10 (Table 2) is greater than 100 µM. Also, the CC50 at 48 h in data set [1] (HEK 293 kidney cells, Table 2) was greater than 100 µM.
As for `Cc1cc(C(C#N)c2ccc(Cl)cc2)c(Cl)cc1NC(=O)c1ccc(Br)cc1` (centres unmarked) [Compound 75, 4-bromo-N-(5-chloro-4-((4-chlorophenyl)(cyano)methyl)-2-methylphenyl)benzamide], at HSP60/10 (Table 2), the IC50 is greater than 100 µM. In addition, in data set [1] (HEK 293 kidney cells, Table 2), the CC50 at 48 h amounted to 33 µM.
Consider `Cc1cc(C(C#N)c2ccc(Cl)cc2)c(Cl)cc1NC(=O)c1ccccc1Cl` (centres unmarked) [Compound 76, 2-chloro-N-(5-chloro-4-((4-chlorophenyl)(cyano)methyl)-2-methylphenyl)benzamide], for which the IC50 on HSP60/10 (Table 2) was greater than 100 µM. The 50% cytotoxic concentration (CC50) at 48 h in data set [1] (Table 2) was greater than 100 µM.
As for `Cc1cc(C(C#N)c2ccc(Cl)cc2)c(Cl)cc1NC(=O)c1cccc(Cl)c1` (centres unmarked) [Compound 77, 3-chloro-N-(5-chloro-4-((4-chlorophenyl)(cyano)methyl)-2-methylphenyl)benzamide], the IC50 at HSP60/10 (Table 2) is greater than 100 µM. Also, the CC50 at 48 h in data set [1] (HEK 293 kidney cells, Table 2) is greater than 100 µM.
Turning to `Cc1cc(C(C#N)c2ccc(Cl)cc2)c(Cl)cc1NC(=O)c1ccc(Cl)cc1` (centres unmarked) [Compound 78, 4-chloro-N-(5-chloro-4-((4-chlorophenyl)(cyano)methyl)-2-methylphenyl)benzamide], the IC50 at HSP60/10 (Table 2) is greater than 100 µM. Further, the CC50 at 48 h in data set [1] (HEK 293 kidney cells, Table 2) stood at 50 µM.
Take `Cc1cc(C(C#N)c2ccc(Cl)cc2)c(Cl)cc1NC(=O)c1ccccc1F` (centres unmarked) [Compound 79, N-(5-chloro-4-((4-chlorophenyl)(cyano)methyl)-2-methylphenyl)-2-fluorobenzamide]: the IC50 on HSP60/10 (Table 2) is greater than 100 µM. Besides, the cytotoxic concentration (CC50) at 48 h in data set [1] (HEK 293 kidney cells, Table 2) came to 85 µM.
For `Cc1cc(C(C#N)c2ccc(Cl)cc2)c(Cl)cc1NC(=O)c1cccc(F)c1` (centres unmarked) [Compound 80, N-(5-chloro-4-((4-chlorophenyl)(cyano)methyl)-2-methylphenyl)-3-fluorobenzamide], in that order: greater than 100 µM and 70 µM.
As to `Cc1cc(C(C#N)c2ccc(Cl)cc2)c(Cl)cc1NC(=O)c1ccc(F)cc1` (centres unmarked) [Compound 81, N-(5-chloro-4-((4-chlorophenyl)(cyano)methyl)-2-methylphenyl)-4-fluorobenzamide], on HSP60/10 (Table 2), the IC50 was greater than 100 µM. For the same compound, the half-maximal cytotoxic concentration (CC50) at 48 h in data set [1] (Table 2) was 78 µM.
`Cc1cc(C(C#N)c2ccc(Cl)cc2)c(Cl)cc1NC(=O)c1ccccc1` (centres unmarked) [Compound 82, N-(5-chloro-4-((4-chlorophenyl)(cyano)methyl)-2-methylphenyl)benzamide]: the IC50 on HSP60/10 (Table 2) was greater than 100 µM. Further, in data set [1] (Table 2), the half-maximal cytotoxic concentration (CC50) at 48 h was found to be 47 µM.
Take `CC(=O)Nc1cc(Cl)c(C(C#N)c2ccc(Cl)cc2)cc1C` (centres unmarked) [Compound 83, N-(5-chloro-4-((4-chlorophenyl)(cyano)methyl)-2-methylphenyl)acetamide]: the IC50 at HSP60/10 (Table 2) was determined as 69 µM. In addition, in data set [1] (HEK 293 kidney cells, Table 2), the cytotoxic concentration (CC50) at 48 h amounted to 83 µM.
Consider `COc1ccc(Cl)cc1C(=O)Nc1ccc(C(C#N)c2ccccc2)cc1` (centres unmarked) [Compound 84, 5-chloro-N-(4-(cyano(phenyl)methyl)phenyl)-2-methoxybenzamide], for which the IC50 at HSP60/10 (Table 3) was greater than 100 µM. For the same compound, the cytotoxic concentration (CC50) at 48 h in data set [1] (HEK 293 kidney cells, Table 3) is greater than 100 µM.
`N#CC(c1ccccc1)c1ccc(NC(=O)c2cc(Cl)ccc2O)cc1` (centres unmarked) [Compound 85, 5-chloro-N-(4-(cyano(phenyl)methyl)phenyl)-2-hydroxybenzamide]: at HSP60/10 (Table 3), the IC50 worked out at 75 µM. In data set [1] (HEK 293 kidney cells, Table 3), the half-maximal cytotoxic concentration (CC50) at 48 h came out at 29 µM.
